Measured values published in PubChem BioAssay AID720577 (The Scripps Research Institute Molecular Screening Center, 2013).
Activity calls are given as the source filed them. How the calls were made is not given here.

Target: CCHF virus vOTU protease domain (L polyprotein)
Test: CCHF virus vOTU protease inhibition, Pep AMC substrate counterscreen, fluorescence, confirmatory IC50 (AID 720577)
Conditions: purified vOTU

SMILES	IC50
COc1ccccc1NC(=O)COC(=O)c1ccc([N+](=O)[O-])s1	inactive
NS(=O)(=O)c1ccc(NC2=CC(=O)C(=O)c3ccccc32)cc1	inactive
O=C(O)CSc1cc(NS(=O)(=O)c2cccc([N+](=O)[O-])c2)c2ccccc2c1O	7.61 µM
COc1cc(NC(=O)COC(=O)c2ccc([N+](=O)[O-])s2)cc(OC)c1OC	inactive
O=C(O)c1cc(O)c2c(c1)[C@H]([C@H]1c3cc(C(=O)O)cc(O)c3C(=O)c3c(O[C@@H]4O[C@H](CO)[C@@H](O)[C@H](O)[C@H]4O)cccc31)c1cccc(OC3O[C@H](CO)[C@@H](O)[C@H](O)[C@H]3O)c1C2=O (some centres undefined)	7.68 µM
CC[n+]1c(-c2ccccc2)c2cc(N)ccc2c2ccc(N)cc21	3.32 µM
O=[N+]([O-])c1cc(O)c2ncccc2c1	inactive
Cc1ccccc1NC1=C/C(=N\S(=O)(=O)c2ccc(C(=O)O)cc2)c2ccccc2C1=O	0.536 µM
COc1ccc2noc3c2c1C(=O)c1ccccc1-3	6.28 µM
CC1=C(SCc2ccccc2)C(=O)c2ccccc2C1=O	9.91 µM
Cn1nc(-c2ccccn2)nc2c(=O)n(C)c(=O)nc1-2	1.16 µM
CCOc1ccc2noc3c2c1C(=O)c1ccccc1-3	inactive
CN(C)c1cccc2c1c(NS(=O)(=O)c1cn(C)cn1)nn2C	inactive
O=C(NC(=S)Nc1ccccc1N1CCCC1)c1ccccc1Br	> 115 µM (inactive)
O=C1Cc2ccccc2C(=O)N1Cc1ccccc1	1.3 µM
Cn1c2ccccc2c2cc(/C=N/NC(=O)c3cc(O)ccc3O)ccc21	inactive
CC1OC(CC(=O)O)CC2=C1C(=O)c1c(O)cccc1C2=O (centres undefined)	inactive
Cc1ccc(NC2=C/C(=N/S(=O)(=O)c3cccs3)c3ccccc3C2=O)cc1	1.79 µM
COc1ccc(N2C(=O)[C@@H]3[C@H](C2=O)[C@H]2c4ccccc4C=CN2[C@@H]3C(C)=O)cc1	inactive
O=C1OC(Nc2cc(Br)cc3cccnc23)c2ccccc21 (centres undefined)	5.44 µM

SMILES	IC50
O=C(O)c1cccc(NC2=C(N3CCOCC3)C(=O)c3ccccc3C2=O)c1	inactive
CC1OC2CC(=O)OC2C2=C1C(=O)c1c(O)cccc1C2=O (centres undefined)	inactive
O=S(=O)(N=C1C=CC(=NS(=O)(=O)c2ccccc2)c2ccccc21)c1ccccc1	inactive
CCOC(=O)c1cc2c(ccn2C)n1Cc1ccccc1C	inactive
O=C(O)CCCNc1cc(N2CCN(C(=O)c3ccco3)CC2)c2noc3c2c1C(=O)c1ccccc1-3	inactive
COc1cccc2c1C(=O)c1c(O)c3c(c(O)c1C2=O)C[C@@](O)(C(=O)CO)C[C@@H]3O[C@H]1C[C@H](N)[C@H](O)[C@H](C)O1	inactive
O=C(O)CSc1cc(NS(=O)(=O)c2ccc(Cl)cc2)c2ccccc2c1O	inactive
CCOC(=O)C1CCN(C(=O)c2c(C)oc3c2C(=O)c2ccccc2C3=O)CC1	inactive
Cc1oc2c(c1C(=O)O)C(=O)c1ccccc1C2=O	inactive
Cc1ccc(S(=O)(=O)/N=C2\C=C(Nc3cccc(C(=O)O)c3)C(=O)c3ccccc32)c(C)c1	2.36 µM
CN(C1=C(NC(=O)c2ccccc2)C(=O)c2ccccc2C1=O)C1CCS(=O)(=O)C1 (centres undefined)	9.59 µM
Cc1ccc(Cl)cc1NC1=C/C(=N\S(=O)(=O)c2cccs2)c2ccccc2C1=O	2.37 µM
Cc1cccc(NC(=O)c2sc3nc4c(c(-c5cccs5)c3c2N)CN(C)CC4)c1	inactive
O=C1C(=O)c2ccccc2-c2ccccc21	3.75 µM
O=C(/C=C/c1ccc([N+](=O)[O-])s1)N1CCCCC1	> 115 µM (inactive)
CCCCCCCCCCOC(=O)Cn1c(COc2ccc(Cl)cc2)[n+](C)c2ccccc21	6.42 µM
O=C(COC(=O)c1ccc([N+](=O)[O-])s1)Nc1ccc(Cl)cn1	> 115 µM (inactive)
Cc1cc(C)c(S(=O)(=O)/N=C2\C=C(Nc3ccc(C(=O)O)cc3)C(=O)c3ccccc32)c(C)c1	4.54 µM
COCCN1C=C2C(=O)C(C)(OC(=O)C3CCCC3)C(=O)C(c3ccccc3)=C2C=C1CCCC(=O)OC (centres undefined)	inactive
